Results from US20080234262A1 (Wyeth, priority 2007, published 2008).

Experiments:
[1] = biological target: PI3K (Homo sapiens, UniProt P42336); experiment: Fluorescence polarization assay for PI3K; type: biochemical; details: PI3Kα; read-out: PI3Kα IC50;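 further: PI3K kinase reaction on PIP2 with ATP, 30-60 min, product sensed by GST-GRP with red probe in fluorescence polarization (mP), controls without enzyme and at zero time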
[2] = tested on: prostate line LNCap; experiment: In vitro cell culture growth assay (MTS), LNCap; type: cell-based, human; details: Homo sapiens, LNCaP, 72 h, LNCap cells, three days after drug treatment;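 further: viable cell density read by absorbance at 490 nm, growth expressed as percent of vehicle-treated cells on the same plate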
[3] = tested on: breast line MDA468; experiment: In vitro cell culture growth assay (MTS), MDA468; type: cell-based, human; details: Homo sapiens, 72 h, MDA468 cells, three days after drug treatment
Outline: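 Steps: plate cells; add inhibitors the next day; incubate 3 days; add MTS dye, which viable cells convert metabolically; measure absorbance at 490 nm; calculate percent of control growth relative to vehicle-treated cells in the same plate.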

Sequence of PI3K (P42336 whole entry): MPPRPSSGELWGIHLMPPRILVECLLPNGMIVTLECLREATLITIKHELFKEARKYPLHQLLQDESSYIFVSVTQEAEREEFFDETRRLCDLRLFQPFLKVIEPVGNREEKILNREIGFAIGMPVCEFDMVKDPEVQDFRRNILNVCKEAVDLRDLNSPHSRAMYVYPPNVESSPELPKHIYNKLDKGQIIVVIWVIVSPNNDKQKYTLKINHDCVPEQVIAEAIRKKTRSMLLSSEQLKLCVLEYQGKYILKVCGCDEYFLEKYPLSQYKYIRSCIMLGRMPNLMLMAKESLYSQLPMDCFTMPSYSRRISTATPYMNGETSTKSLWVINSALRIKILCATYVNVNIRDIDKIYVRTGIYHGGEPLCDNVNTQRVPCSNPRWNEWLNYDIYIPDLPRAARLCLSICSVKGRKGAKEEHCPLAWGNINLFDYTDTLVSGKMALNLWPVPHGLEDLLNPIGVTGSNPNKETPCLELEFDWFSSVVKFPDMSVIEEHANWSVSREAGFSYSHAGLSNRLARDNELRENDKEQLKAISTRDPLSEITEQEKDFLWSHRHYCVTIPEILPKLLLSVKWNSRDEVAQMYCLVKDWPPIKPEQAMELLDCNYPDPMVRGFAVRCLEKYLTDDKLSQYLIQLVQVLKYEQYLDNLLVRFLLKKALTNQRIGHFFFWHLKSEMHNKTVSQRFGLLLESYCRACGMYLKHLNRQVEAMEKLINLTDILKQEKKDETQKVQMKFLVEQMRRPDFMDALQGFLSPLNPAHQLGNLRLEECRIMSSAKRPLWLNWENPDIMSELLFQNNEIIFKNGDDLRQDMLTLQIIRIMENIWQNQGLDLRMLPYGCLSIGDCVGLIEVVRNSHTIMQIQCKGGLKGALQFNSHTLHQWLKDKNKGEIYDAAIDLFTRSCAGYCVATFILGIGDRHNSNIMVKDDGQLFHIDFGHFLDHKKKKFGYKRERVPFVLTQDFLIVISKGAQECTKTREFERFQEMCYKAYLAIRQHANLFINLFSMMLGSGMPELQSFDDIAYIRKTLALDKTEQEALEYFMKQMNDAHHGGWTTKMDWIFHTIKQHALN
Sequence of PI3K (P27986 whole entry partner): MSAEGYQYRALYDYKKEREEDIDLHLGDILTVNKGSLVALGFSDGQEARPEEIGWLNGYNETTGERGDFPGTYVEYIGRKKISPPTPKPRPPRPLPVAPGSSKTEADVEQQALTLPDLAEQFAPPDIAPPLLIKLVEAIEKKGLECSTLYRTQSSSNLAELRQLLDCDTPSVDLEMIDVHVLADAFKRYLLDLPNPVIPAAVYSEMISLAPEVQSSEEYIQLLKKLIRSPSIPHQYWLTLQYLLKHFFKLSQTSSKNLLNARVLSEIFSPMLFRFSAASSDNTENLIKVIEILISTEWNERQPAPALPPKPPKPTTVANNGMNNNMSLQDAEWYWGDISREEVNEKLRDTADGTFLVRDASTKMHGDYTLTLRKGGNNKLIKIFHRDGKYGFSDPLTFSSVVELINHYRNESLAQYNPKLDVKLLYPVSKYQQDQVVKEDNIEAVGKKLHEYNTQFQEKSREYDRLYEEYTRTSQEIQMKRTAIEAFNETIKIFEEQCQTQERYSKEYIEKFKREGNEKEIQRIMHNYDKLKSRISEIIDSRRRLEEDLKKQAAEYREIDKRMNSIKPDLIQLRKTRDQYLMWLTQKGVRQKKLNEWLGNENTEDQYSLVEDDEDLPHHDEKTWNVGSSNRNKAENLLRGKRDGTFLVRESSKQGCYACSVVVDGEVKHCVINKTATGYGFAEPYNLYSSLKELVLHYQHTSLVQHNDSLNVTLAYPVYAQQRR

With `O=C(Nc1ccc(-c2nc(N3CCOCC3)c3cnn(C4CCN(CC(F)(F)F)CC4)c3n2)cc1)NC1CC1` [Compound 788, 1-cyclopropyl-3-(4-{4-morpholin-4-yl-1-[1-(2,2,2-trifluoroethyl)piperidin-4-yl]-1H-pyrazolo[3,4-d]pyrimidin-6-yl}phenyl)urea] the IC50 [1] was 734 nM, the IC50 [2] was 120 nM and the IC50 [3] was 1600 nM.
`O=C(NCCO)Nc1ccc(-c2nc(N3CCOCC3)c3cnn(C4CCN(C(=O)c5cccnc5)CC4)c3n2)cc1` [Example 304, 1-(2-hydroxyethyl)-3-(4-{4-morpholin-4-yl-1-[1-(pyridin-3-ylcarbonyl)piperidin-4-yl]-1H-pyrazolo[3,4-d]pyrimidin-6-yl}phenyl)urea] was tested, and the IC50 [1] was 220 nM, the IC50 [2] was 7500 nM and the IC50 [3] was 9000 nM.
With `COc1cccc(C(=O)Nc2ccc(-c3nc(N4CCOCC4)c4cnn(C5CCCCO5)c4n3)cc2)c1` (stereo not drawn) [Compound 519, 3-methoxy-N-{4-[4-morpholin-4-yl-1-(tetrahydro-2H-pyran-2-yl)-1H-pyrazolo[3,4-d]pyrimidin-6-yl]phenyl}benzamide] the IC50 [1] was 8320 nM, the IC50 [2] was 1950 nM and the IC50 [3] was > 60000 nM.
`O=C(Nc1ccc(-c2nc(N3CCOCC3)c3cnn(C4CCNCC4)c3n2)cc1)Nc1cccnc1` [Compound 779, 1-[4-(4-morpholin-4-yl-1-piperidin-4-yl-1H-pyrazolo[3,4-d]pyrimidin-6-yl)phenyl]-3-pyridin-3-ylurea] gave an IC50 [1] of 26 nM, an IC50 [2] of 2800 nM and an IC50 [3] of 900 nM.
With `CNC(=O)Nc1ccc(-c2nc(N3CCOCC3)c3cnn(C4CCN(C(=O)c5cccc(F)c5)CC4)c3n2)cc1` [Example 357, 1-(4-{1-[1-(3-fluorobenzoyl)piperidin-4-yl]-4-morpholin-4-yl-1H-pyrazolo[3,4-d]pyrimidin-6-yl}phenyl)-3-methylurea] the IC50 [1] was 89 nM, the IC50 [2] was 27 nM and the IC50 [3] was 100 nM.
In the case of `CN(C)CCNC(=O)c1cccc(-c2nc(N3CCOCC3)c3cnn(-c4ccccc4)c3n2)c1` [Compound 104], the IC50 [1] is reported as 244 nM, the IC50 [2] is reported as 3700 nM and the IC50 [3] is reported as 3300 nM.
`Cc1ccc(C(=O)N2CCC(n3ncc4c(N5CCOCC5)nc(-c5ccc6[nH]ccc6c5)nc43)CC2)cc1` [Example 53] showed an IC50 [1] of 846 nM, an IC50 [2] of 220 nM and an IC50 [3] of 3900 nM.
`COCCOC(=O)Nc1ccc(-c2nc(N3CCOCC3)c3cnn(C4CCN(C(=O)OC)CC4)c3n2)cc1` [Compound 902, methyl 4-[6-(4-{[(2-methoxyethoxy)carbonyl]amino}phenyl)-4-morpholin-4-yl-1H-pyrazolo[3,4-d]pyrimidin-1-yl]piperidine-1-carboxylate] was tested, and the IC50 [1] was 3050 nM, the IC50 [2] was 3300 nM and the IC50 [3] was > 60000 nM.
Molecule `CNC(=O)Nc1ccc(-c2nc(N3CCOCC3)c3cnn(C4CCN(C(=O)NC)CC4)c3n2)cc1` [Example 477, N-methyl-4-(6-{4-[(methylcarbamoyl)amino]phenyl}-4-morpholin-4-yl-1H-pyrazolo[3,4-d]pyrimidin-1-yl)piperidine-1-carboxamide] has an IC50 [1] of 149 nM, an IC50 [2] of 2200 nM and an IC50 [3] of 1800 nM.
In the case of `O=C(c1ccc(Br)nc1)N1CCC(n2ncc3c(N4CCOCC4)nc(-c4ccc5[nH]ccc5c4)nc32)CC1` [Compound 203], the IC50 [1] is reported as 1160 nM, the IC50 [2] is reported as 1050 nM and the IC50 [3] is reported as 3000 nM.
`C=CCONC(=O)Nc1ccc(-c2nc(N3CCOCC3)c3cnn(-c4ccccc4)c3n2)cc1` [Compound 542, 1-(allyloxy)-3-[4-(4-morpholin-4-yl-1-phenyl-1H-pyrazolo[3,4-d]pyrimidin-6-yl)phenyl]urea] gave an IC50 [1] of 896 nM, an IC50 [2] of 3000 nM and an IC50 [3] of 60000 nM.
`CNC(=O)Nc1ccc(-c2nc(N3CCOCC3)c3cnn(C4CCN(Cc5cccc(OC)c5)CC4)c3n2)cc1` [Example 400, 1-(4-{1-[1-(3-methoxybenzyl)piperidin-4-yl]-4-morpholin-4-yl-1H-pyrazolo[3,4-d]pyrimidin-6-yl}phenyl)-3-methylurea] gave an IC50 [1] of 43 nM, an IC50 [2] of 70 nM and an IC50 [3] of 500 nM.
`COc1cccc(-c2nc(N3CCOCC3)c3cnn(C4CCN(Cc5ccccc5)CC4)c3n2)c1` [Example 32] gave an IC50 [1] of 1440 nM, an IC50 [2] of 8800 nM and an IC50 [3] of 10000 nM.
In the case of `CNC(=O)Nc1ccc(-c2nc(N3CCOCC3)c3cnn(C4CCN(C(=O)c5cnccn5)CC4)c3n2)cc1` [Example 422, 1-methyl-3-(4-{4-morpholin-4-yl-1-[1-(pyrazin-2-ylcarbonyl)piperidin-4-yl]-1H-pyrazolo[3,4-d]pyrimidin-6-yl}phenyl)urea], the IC50 [1] is reported as 198 nM, the IC50 [2] is reported as 320 nM and the IC50 [3] is reported as 400 nM.
Molecule `Nc1ccnc(-c2nc(N3CCOCC3)c3cnn(-c4ccccc4)c3n2)c1` [Compound 437, 2-(4-morpholin-4-yl-1-phenyl-1H-pyrazolo[3,4-d]pyrimidin-6-yl)pyridin-4-amine] has an IC50 [1] of 1460 nM, an IC50 [2] of 60000 nM and an IC50 [3] of 60000 nM.
